Laboratory results published in patent EP1611889A1, “ANTIBACTERIAL AGENT AND ANTICANCER AGENT” (MITSUBISHI CORPORATION, priority 2003, dated 2004).

Assay: Solubility in DMSO
Assay type: physicochemical

Substance: C60-bis(N,N-dimethyl-2-hexylpyyrolidinium iodido) [derivative 4]
- dissolved in DMSO at a concentration: ≥ 5 mM
